These compounds were tested against T1, human mPGES-1 (Homo sapiens, UniProt O14684) (assay: Test for mPGES-1 inhibitory activity (microsomal enzyme, PGE2 EIA)). Conditions: microsomes from COS-1 cells transfected with human mPGES-1 cDNA; substrate PGH2 1 μM; 4° C., 4 minutes; PGE2 measured by EIA; read-out: h mPGES1 IC50.
T1 construct: made in house; host or cells: COS-1 cells (transient transfection; microsomal fraction used as enzyme)
T1 sequence (O14684 1-152): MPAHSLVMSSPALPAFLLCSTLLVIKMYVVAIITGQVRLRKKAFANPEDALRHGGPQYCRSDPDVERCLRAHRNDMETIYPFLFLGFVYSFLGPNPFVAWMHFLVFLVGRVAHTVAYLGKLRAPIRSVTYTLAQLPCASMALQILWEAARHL
Type: biochemical
Outline: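 IC50 values were derived from EIA-quantified PGE2 after a 4 min, 4 °C reaction with PGH2 at 1 μM final, stopped with ferric chloride/citric acid. Beforehand, compound (2% DMSO final) sat 15 min at 4 °C with human mPGES-1 microsomes from transiently transfected COS-1 cells. Buffer was sodium phosphate pH 7.2 containing 2.5 mM reduced glutathione and 1 mM EDTA.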

| IC50 | SMILES |
| --- | --- |
| < 1 nM | O=C(NCc1ccc(C(F)(F)F)c(-c2nc(C(F)(F)F)cc(=O)[nH]2)c1F)C1CCN(c2cccc(OC(F)(F)F)c2)CC1 [Example 74, N-{2-fluoro-3-[6-oxo-4-(trifluoromethyl)-1,6-dihydropyrimidin-2-yl]-4-(trifluoromethyl)benzyl}-1-[3-(trifluoromethoxy)phenyl]piperidine-4-carboxamide] |
| 1.1 nM | O=C(NCc1ccc(C(F)(F)F)c(-c2nc(C(F)(F)F)cc(=O)[nH]2)c1F)C1CCN(c2ccc(C(F)(F)F)cc2)CC1 [Example 63, N-{2-fluoro-3-[6-oxo-4-(trifluoromethyl)-1,6-dihydropyrimidin-2-yl]-4-(trifluoromethyl)benzyl}-1-[4-(trifluoromethyl)phenyl]piperidine-4-carboxamide] |
| < 1 nM | O=C(NCc1ccc(C(F)(F)F)c(-c2nc(C(F)(F)F)cc(=O)[nH]2)c1F)C1CCN(c2ncc(C(F)(F)F)cc2F)CC1 [Example 39, N-{2-fluoro-3-[6-oxo-4-(trifluoromethyl)-1,6-dihydropyrimidin-2-yl]-4-(trifluoromethyl)benzyl}-1-[3-fluoro-5-(trifluoromethyl)pyridin-2-yl]piperidine-4-carboxamide] |
| < 1 nM | O=C(NCc1ccc(C(F)(F)F)c(-c2nc(C(F)(F)F)cc(=O)[nH]2)c1F)C1CCN(c2ccc(C(F)(F)F)cn2)CC1 [Example 20, N-{2-fluoro-3-[6-oxo-4-(trifluoromethyl)-1,6-dihydropyrimidin-2-yl]-4-(trifluoromethyl)benzyl}-1-[5-(trifluoromethyl)pyridin-2-yl]piperidine-4-carboxamide] |
| < 1 nM | O=C(NCc1ccc(C(F)(F)F)c(-c2nc(C(F)F)cc(=O)[nH]2)c1F)C1CCN(c2ncc(C(F)(F)F)cc2F)CC1 [Example 55, N-{3-[4-(difluoromethyl)-6-oxo-1,6-dihydropyrimidin-2-yl]-2-fluoro-4-(trifluoromethyl)benzyl}-1-[3-fluoro-5-(trifluoromethyl)pyridin-2-yl]piperidine-4-carboxamide] |

Same assay, conditions: microsomes of COS-1 cells transfected with human mPGES-1 cDNA; PGH2 1 μM; 4° C., 4 minutes; PGE2 by EIA; read-out: h mPGES1 IC50

| IC50 | SMILES |
| --- | --- |
| < 1 nM | O=C(NCc1ccc(C(F)(F)F)c(-c2nc(-c3ccc(C(F)(F)F)cn3)cc(=O)[nH]2)c1F)C1CCN(c2ccc3nccn3n2)CC1 [Example 267, N-(2-fluoro-3-{6-oxo-4-[5-(trifluoromethyl)pyridin-2-yl]-1,6-dihydropyrimidin-2-yl}-4-(trifluoromethyl)benzyl)-1-(imidazo[1,2-b]pyridazin-6-yl)piperidine-4-carboxamide] |
| < 1 nM | Cc1nc(-c2c(C(F)(F)F)ccc(CNC(=O)[C@H]3C[C@H](OCc4cc(F)cc(Cl)c4)C3)c2F)[nH]c(=O)c1F [Example 228, trans-3-[(3-chloro-5-fluorobenzyl)oxy]-N-[2-fluoro-3-(5-fluoro-4-methyl-6-oxo-1,6-dihydropyrimidin-2-yl)-4-(trifluoromethyl)benzyl]cyclobutane-1-carboxamide] |
| 13 nM | Cc1cc(=O)[nH]c(-c2c(C(F)(F)F)ccc(CNC(=O)[C@H]3C[C@H](OCc4cccc(F)c4F)C3)c2F)n1 [Example 189, trans-3-[(2,3-difluorobenzyl)oxy]-N-[2-fluoro-3-(4-methyl-6-oxo-1,6-dihydropyrimidin-2-yl)-4-(trifluoromethyl)benzyl]cyclobutane-1-carboxamide] |
| < 1 nM | CCc1nc(-c2c(C(F)(F)F)ccc(CNC(=O)[C@H]3C[C@H](OCc4cccc(Cl)c4)C3)c2F)[nH]c(=O)c1F [Example 230, trans-3-[(3-chlorobenzyl)oxy]-N-[3-(4-ethyl-5-fluoro-6-oxo-1,6-dihydropyrimidin-2-yl)-2-fluoro-4-(trifluoromethyl)benzyl]cyclobutane-1-carboxamide] |
| < 1 nM | O=c1cc(C(F)(F)F)nc(-c2c(C(F)(F)F)ccc(CNC(=O)[C@H]3C[C@@H](OCc4ccc(C(F)(F)F)cc4)C3)c2F)[nH]1 [Example 147, cis-N-{2-fluoro-3-[6-oxo-4-(trifluoromethyl)-1,6-dihydropyrimidin-2-yl]-4-(trifluoromethyl)benzyl}-3-{[4-(trifluoromethyl)benzyl]oxy}cyclobutane-1-carboxamide] |

Source: patent US20250340557A1, “PYRIMIDINE DERIVATIVE” (ASKA PHARMACEUTICAL CO., LTD., priority 2022, published 2025)
